From patent publication US20230355597A1, “COMPOUNDS, COMPOSITIONS, AND METHODS FOR THE TREATMENT AND PREVENTION OF AVIAN PATHOGENIC E. COLI (APEC)” (OHIO STATE INNOVATION FOUNDATION, priority 2018, published 2023)
Converted amounts (≈) assume the structure as drawn. Where two headings read alike, the source gives them in different places. Marks after values point to notes of the source that are not given here.

How the values were obtained:
APEC O18 = type: cell-based, avian pathogenic Escherichia coli (APEC); conditions: APEC O18, M63 media; MIC/MBC
APEC O15 = type: cell-based, avian pathogenic Escherichia coli (APEC); conditions: APEC O15, M63 media; MIC/MBC
[1] = test system: intracellular APEC O2 in THP-1 cells; assay: Intracellular survival assay (cidal SMs); conditions: O2, THP-1, 6 h treatment; superscript = multiple of MIC
APEC O78 [2] = assay: Loss of 260/280 nm absorbing materials assay; type: cell-based, avian pathogenic Escherichia coli (APEC); conditions: 2X MBC, 1 h, *P<0.05 vs DMSO; for Absorbance 260: 260 nm absorbing material in supernatant; for Absorbance 280: 280 nm absorbing material in supernatant
[3] = test system: intracellular APEC O78 in THP-1 cells; assay: Intracellular survival assay (cidal SMs); conditions: O78, THP-1, 6 h treatment; superscript = multiple of MIC
[4] = test system: intracellular APEC O2 in HD11 cells; assay: Intracellular survival assay (cidal SMs); conditions: O2, HD11, 6 h treatment; superscript = multiple of MIC
APEC O8 = type: cell-based, avian pathogenic Escherichia coli (APEC); conditions: APEC O8, M63 media; MIC/MBC
APEC O1-63 = type: cell-based, avian pathogenic Escherichia coli (APEC); conditions: APEC O1-63, M63 media; MIC/MBC
APEC O78-53 = type: cell-based, avian pathogenic Escherichia coli (APEC); conditions: APEC O78-53, M63 media; MIC/MBC
[5] = test system: intracellular APEC O1 in THP-1 cells; assay: Intracellular survival assay (cidal SMs); conditions: O1, THP-1, 6 h treatment; superscript = multiple of MIC
[6] = test system: intracellular APEC O1 in Caco-2 cells; assay: Intracellular survival assay (cidal SMs); conditions: O1, Caco-2, 6 h treatment; superscript = multiple of MIC
[7] = test system: intracellular APEC O2 in Caco-2 cells; assay: Intracellular survival assay (cidal SMs); conditions: O2, Caco-2, 6 h treatment; superscript = multiple of MIC
APEC O35 = type: cell-based, avian pathogenic Escherichia coli (APEC); conditions: APEC O35, M63 media; MIC/MBC
APEC O2-211 = type: cell-based, avian pathogenic Escherichia coli (APEC); conditions: APEC O2-211, M63 media; MIC/MBC
[8] = test system: intracellular APEC O78, O2, and O1 in infected Caco-2, HD11, and THP1 cells; assay: Intracellular survival assay (cidal SMs), summary over serotypes and cells; conditions: overall ranking
APEC O1 = type: cell-based, avian pathogenic Escherichia coli (APEC); conditions: APEC O1, M63 media; MIC/MBC
APEC O109 = type: cell-based, avian pathogenic Escherichia coli (APEC); conditions: APEC O109, M63 media; MIC/MBC
APEC O78 [9] = assay: Confocal microscopy bacterial cytological profiling; type: cell-based, avian pathogenic Escherichia coli (APEC); conditions: 2X MBC
Procedure: Confocal and scanning electron microscopy. Confocal microscopy was used for bacterial cytological profiling (BCP) to identify the cellular pathways targeted by SMs as described previously. […] After incubation, treated cultures were centrifuged, washed, and resuspended in 100 μL PBS. […] Cultures were then centrifuged, washed, and resuspended in PBS to 1⁄10th volume of the original cultures.

[10] = test system: intracellular APEC O1 in HD11 cells; assay: Intracellular survival assay (cidal SMs); conditions: O1, HD11, 6 h treatment; superscript = multiple of MIC
APEC O2 = type: cell-based, avian pathogenic Escherichia coli (APEC); conditions: APEC O2, M63 media; MIC/MBC
[11] = test system: intracellular APEC O78 in Caco-2 cells; assay: Intracellular survival assay (cidal SMs); conditions: O78, Caco-2, 6 h treatment; superscript = multiple of MIC
APEC O78 [12] = type: cell-based, avian pathogenic Escherichia coli (APEC); conditions: APEC O78, M63 media
[13] = test system: biofilm embedded APEC O78; assay: MBEC High-throughput assay; type: cell-based, avian pathogenic Escherichia coli (APEC); conditions: biofilm embedded APEC O78; superscript = multiple of MIC (footnote)
Procedure: Effect against biofilm embedded APEC. The effect of cidal SMs against biofilm embedded APEC was determined using MBEC High-throughput (HTP) assay (Innovotech Inc., AB, Canada). Briefly, 150 µL of 0.05 OD600 adjusted APEC O78 culture was aliquoted into each well of the MBEC device containing polystyrene pegs and incubated at 37° C. for 36 h in LB media under stationary condition. […] The plate was incubated in the dark for 18 h at 37° C. with rotation at 110 rpm. The DMSO (1%) and M63 media were used as positive and negative controls, respectively. Following incubation, MIC of SMs in challenged plate was recorded. The SMs exposed pegs were then transferred to a new 96-well plate containing PBS and sonicated for 30 mins (Aquasonic ultrasonic cleaner, VWR) to disrupt the biofilm. […] Biofilm embedded APEC bacteria were enumerated and minimum biofilm eradication concentration (MBEC) of […] were determined. Two independent experiments were conducted.

[14] = test system: intracellular APEC O78 in HD11 cells; assay: Intracellular survival assay (cidal SMs); conditions: O78, HD11, 6 h treatment; superscript = multiple of MIC
APEC O115 = type: cell-based, avian pathogenic Escherichia coli (APEC); conditions: APEC O115, M63 media; MIC/MBC
Rif^r APEC O78 = assay: In vivo efficacy of growth inhibitors in APEC infected broiler chickens

CC1CCC(C(C)C)C(OC(=O)Cn2c[n+](CC(=O)OC3CC(C)CCC3C(C)C)c3ccccc32)C1.[Cl-] (centres unmarked) [SM4]
MBC (APEC O18): 50 µM
MIC (APEC O18): 25 µM
MBC (APEC O15): 25 µM
MIC (APEC O15): 25 µM
SMs intracellular APEC clearance concentration [1]: 100^c µM
Absorbance 260 (APEC O78 [2]): 3.91*
Absorbance 280 (APEC O78 [2]): 2.69*
SMs intracellular APEC clearance concentration [3]: 56^b µM
SMs intracellular APEC clearance concentration [4]: 50^b µM
MBC (APEC O8): 25 µM
MIC (APEC O8): 25 µM
MBC (APEC O1-63): 50 µM
MIC (APEC O1-63): 25 µM
MBC (APEC O78-53): 50 µM
MIC (APEC O78-53): 25 µM
SMs intracellular APEC clearance concentration [5]: >100 µM
SMs intracellular APEC clearance concentration [6]: 100^c µM
SMs intracellular APEC clearance concentration [7]: 100^c µM
MBC (APEC O35): 25 µM
MIC (APEC O35): 25 µM
MBC (APEC O2-211): 25 µM
MIC (APEC O2-211): 25 µM
effectiveness in clearing intracellular APEC serotypes in all tested cells [8]: most effective
MBC (APEC O1): 50 µM
MIC (APEC O1): 25 µM
MBC (APEC O109): 25 µM
MIC (APEC O109): 25 µM
cytological profile (confocal, FM4-64 / SYTO-9) (APEC O78 [9]): membrane disruptors
SMs intracellular APEC clearance concentration [10]: 50^b µM
MBC (APEC O2): 50 µM
MIC (APEC O2): 25 µM
SMs intracellular APEC clearance concentration [11]: 50^b µM
MBC (APEC O78 [12]; cell prints MIC/MBC): 50 µM
MIC (APEC O78 [12]; cell prints MIC/MBC): 25 µM
MBEC [13]: 25^a µM
SMs intracellular APEC clearance concentration [14]: 50^b µM
MBC (APEC O115): 25 µM
MIC (APEC O115): 25 µM

COc1ccc(CNCc2cccc(C(F)(F)F)c2)cc1OCC(O)CN1CCCC1 (centres unmarked) [SM7]
MBC (APEC O18): 100 µM (≈ 43.8 µg/mL)
MIC (APEC O18): 50 µM (≈ 21.9 µg/mL)
MBC (APEC O15): 50 µM (≈ 21.9 µg/mL)
MIC (APEC O15): 50 µM (≈ 21.9 µg/mL)
SMs intracellular APEC clearance concentration [1]: 25^a µM
Absorbance 260 (APEC O78 [2]): 3.91*
Absorbance 280 (APEC O78 [2]): 2.70*
SMs intracellular APEC clearance concentration [3]: 50^b µM
SMs intracellular APEC clearance concentration [4]: 100^c µM
MBC (APEC O8): 200 µM (≈ 87.7 µg/mL)
MIC (APEC O8): 100 µM (≈ 43.8 µg/mL)
MBC (APEC O1-63): 100 µM (≈ 43.8 µg/mL)
MIC (APEC O1-63): 50 µM (≈ 21.9 µg/mL)
MBC (APEC O78-53): 50 µM (≈ 21.9 µg/mL)
MIC (APEC O78-53): 50 µM (≈ 21.9 µg/mL)
SMs intracellular APEC clearance concentration [5]: >100 µM
SMs intracellular APEC clearance concentration [6]: 100^c µM
SMs intracellular APEC clearance concentration [7]: 100^c µM
MBC (APEC O35): 50 µM (≈ 21.9 µg/mL)
MIC (APEC O35): 25 µM (≈ 11 µg/mL)
reduction of average APEC load in internal organs (Rif^r APEC O78; average of liver, heart, lung and kidney, vs untreated control): 2.6 logs
cumulative lesions score (Rif^r APEC O78; liver, heart, lung and air-sacs, untreated 6.2): 2.4
reduction of APEC induced mortality (Rif^r APEC O78; oral gavage twice a day, 5 days, untreated mortality (58.34%) normalized to 100%): 71.42%
reduction of APEC lesions severity (%), Air-sacs (airsacculitis) (Rif^r APEC O78; untreated control = 100%): 52.9%
reduction of APEC lesions severity (%), Heart (pericarditis) (Rif^r APEC O78; untreated control = 100%): 60%
reduction of APEC lesions severity (%), Liver (perihepatitis) (Rif^r APEC O78; untreated control = 100%): 60%
reduction of APEC lesions severity (%), Lung (lung congestion) (Rif^r APEC O78; untreated control = 100%): 83.3%
effect on BWG of chickens (Rif^r APEC O78; vs non-treated and non-infected chickens): indistinguishable BWG
reduction of APEC load, Heart (Rif^r APEC O78; vs untreated control): 2.3 log CFU/g of tissues
reduction of APEC load, Kidney (Rif^r APEC O78; vs untreated control): 3.2 log CFU/g of tissues
reduction of APEC load, Liver (Rif^r APEC O78; vs untreated control): 2.5 log CFU/g of tissues
reduction of APEC load, Lung (Rif^r APEC O78; vs untreated control): 2.4 log CFU/g of tissues
Body weight gain (BWG) (Rif^r APEC O78; weight of live chickens before necropsy minus weight before treatment): 261.30±20.43
MBC (APEC O2-211): 50 µM (≈ 21.9 µg/mL)
MIC (APEC O2-211): 50 µM (≈ 21.9 µg/mL)
effectiveness in clearing intracellular APEC serotypes in all tested cells [8]: most effective
MBC (APEC O1): 100 µM (≈ 43.8 µg/mL)
MIC (APEC O1): 50 µM (≈ 21.9 µg/mL)
MBC (APEC O109): 100 µM (≈ 43.8 µg/mL)
MIC (APEC O109): 100 µM (≈ 43.8 µg/mL)
cytological profile (confocal, FM4-64 / SYTO-9) (APEC O78 [9]): membrane pore formers
SMs intracellular APEC clearance concentration [10]: 100^c µM
MBC (APEC O2): 50 µM (≈ 21.9 µg/mL)
MIC (APEC O2): 25 µM (≈ 11 µg/mL)
SMs intracellular APEC clearance concentration [11]: 100^c µM
MIC (APEC O78 [12]; MIC/MBC): 25 µM (≈ 11 µg/mL)
MBC (APEC O78 [12]; cell prints MIC/MBC): 50 µM (≈ 21.9 µg/mL)
MBEC [13]: 50^b µM
SMs intracellular APEC clearance concentration [14]: 50^b µM
MBC (APEC O115): 100 µM (≈ 43.8 µg/mL)
MIC (APEC O115): 100 µM (≈ 43.8 µg/mL)
